According to patent US20230024302A1, “2,3,5-TRISUBSTITUTED PYRAZOLO[1,5-A]PYRIMIDINE COMPOUNDS” (Arcus Biosciences, Inc., priority 2019, published 2023):
Like-named read-outs stand apart in the source and are kept apart here.

Legend:
PI3Kγ = biological target: T1, PI3Kγ (Homo sapiens, UniProt P48736); experiment: PI3Kγ cellular assay in THP-1 cells (AKT pS473 AlphaLISA); assay type: cell-based
T1 construct: host or cells: THP-1
Procedure, shortened: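 Serum-starved THP-1 cells (1.8×10^5/well, serum-free DMEM) treated with compounds from 4 nM to 30 μM in 2% DMSO, then stimulated and lysed.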

PI3Kγ (p120γ) = biological target: T2, PI3Kγ (p120γ) (Homo sapiens, UniProt P48736); experiment: Inhibition of PI3K kinase activity (ADP Glo), PI3Kγ; settings: read-out: biochemical potency (PI3Kγ IC50)
T2 construct: purchased Promega V1761
Procedure, shortened: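 Recombinant p120γ (8 nM, 2× stock) was preincubated with compound for 1 h at rt in HEPES pH 7.4, NaCl, MgCl2 and 0.05% BSA. Reaction was started with PIP2 (0.1 mg/ml, 2×) and ATP (50 μM, 2×) and ran 60 min at rt. ADP formed was read by ADP-Glo luminescence, and IC50 came from a 4-parameter fit.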

[1] = Table 3, rhMCP-1 stimulated AKT pS473, read-out: cellular potency (PI3Kγ IC50)
[2] = AKT pS473, read-out: cellular potency (PI3Kγ IC50)

T1 sequence (P48736 whole entry): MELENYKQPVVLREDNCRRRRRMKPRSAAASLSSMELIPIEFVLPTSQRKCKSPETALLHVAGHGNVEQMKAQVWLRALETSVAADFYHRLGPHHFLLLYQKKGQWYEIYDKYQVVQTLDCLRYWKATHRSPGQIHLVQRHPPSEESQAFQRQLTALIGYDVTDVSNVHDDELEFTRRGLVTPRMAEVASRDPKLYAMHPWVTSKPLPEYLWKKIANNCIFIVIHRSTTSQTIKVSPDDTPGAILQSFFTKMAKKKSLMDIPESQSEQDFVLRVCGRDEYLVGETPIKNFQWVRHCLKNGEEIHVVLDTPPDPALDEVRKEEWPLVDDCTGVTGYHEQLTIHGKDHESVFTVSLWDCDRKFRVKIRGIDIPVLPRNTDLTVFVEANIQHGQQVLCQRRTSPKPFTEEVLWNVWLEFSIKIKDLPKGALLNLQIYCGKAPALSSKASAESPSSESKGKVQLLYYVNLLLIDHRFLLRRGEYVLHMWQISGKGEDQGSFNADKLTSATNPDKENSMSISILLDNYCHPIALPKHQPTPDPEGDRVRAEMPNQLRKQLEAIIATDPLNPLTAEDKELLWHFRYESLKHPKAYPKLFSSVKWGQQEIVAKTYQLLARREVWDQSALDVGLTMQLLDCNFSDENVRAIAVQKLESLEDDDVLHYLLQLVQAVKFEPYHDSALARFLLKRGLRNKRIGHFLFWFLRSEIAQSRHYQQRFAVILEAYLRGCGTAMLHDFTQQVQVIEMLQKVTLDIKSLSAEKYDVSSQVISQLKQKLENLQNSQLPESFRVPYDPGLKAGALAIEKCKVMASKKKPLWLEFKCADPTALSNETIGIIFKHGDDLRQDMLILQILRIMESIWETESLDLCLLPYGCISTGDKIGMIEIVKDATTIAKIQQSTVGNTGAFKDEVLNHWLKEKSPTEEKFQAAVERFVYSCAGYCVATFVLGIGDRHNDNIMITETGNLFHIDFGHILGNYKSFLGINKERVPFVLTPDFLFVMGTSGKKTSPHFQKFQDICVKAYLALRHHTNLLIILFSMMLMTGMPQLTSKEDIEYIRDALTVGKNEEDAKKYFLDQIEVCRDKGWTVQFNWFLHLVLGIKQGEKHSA
T2 sequence (P48736 whole entry): as above

| IC50 (PI3Kγ; [1]) [µM] | IC50 (PI3Kγ (p120γ); Table 3, p120γ) [µM] | IC50 (PI3Kγ; [2]) [µM] | IC50 (PI3Kγ (p120γ)) [µM] | Structure (SMILES) |
| --- | --- | --- | --- | --- |
| 0.1 to 1 | < 0.1 | – | – | C[C@@H](C1CC1)N1Cc2cc(-c3ccn4nc(N)c(C(=O)Nc5cncc(F)c5)c4n3)cc(C(F)(F)F)c2C1=O [Example 351] |
| 0.1 to 1 | < 0.1 | – | – | C[C@@H](C1CC1)N1Cc2cc(-c3ccn4nc(N)c(C(=O)NCCNS(C)(=O)=O)c4n3)cc(C(F)(F)F)c2C1=O [Example 352] |
| 0.1 to 1 | < 0.1 | – | – | C[C@@H](C1CC1)N1Cc2cc(-c3ccn4nc(N)c(C(=O)N[C@@H](CO)C5CC5)c4n3)cc(C(F)(F)F)c2C1=O [Example 353] |
| 0.1 to 1 | < 0.1 | – | – | C[C@@H](C1CC1)N1Cc2cc(-c3ccn4nc(N)c(C(=O)Nc5ccc(CC(F)(F)F)nc5)c4n3)cc(C(F)(F)F)c2C1=O [Example 354] |
| 0.1 to 1 | < 0.1 | – | – | COc1cncc(NC(=O)c2c(N)nn3ccc(-c4cc5c(c(C(F)(F)F)c4)C(=O)N([C@@H](C)C4CC4)C5)nc23)c1 [Example 355] |
| 0.1 to 1 | < 0.1 | – | – | C[C@@H](C1CC1)N1Cc2cc(-c3ccn4nc(N)c(C(=O)N[C@H]5CCCNC5)c4n3)cc(C(F)(F)F)c2C1=O [Example 356] |
| > 1 | < 0.1 | – | – | C[C@@H](C1CC1)N1Cc2cc(-c3ccn4nc(N)c(C(=O)N[C@H]5CNC[C@H]5O)c4n3)cc(C(F)(F)F)c2C1=O [Example 357] |
| 0.1 to 1 | < 0.1 | – | – | C[C@@H](C1CC1)N1Cc2cc(-c3ccn4nc(N)c(C(=O)N[C@@H]5CCC[C@H](N)C5)c4n3)cc(C(F)(F)F)c2C1=O [Example 358] |
| > 1 | < 0.1 | – | – | C[C@@H](C1CC1)N1Cc2cc(-c3ccn4nc(N)c(C(=O)N[C@H]5CNC[C@@H]5O)c4n3)cc(C(F)(F)F)c2C1=O [Example 359] |
| > 1 | < 0.1 | – | – | C[C@@H](C1CC1)N1Cc2cc(-c3ccn4nc(N)c(C(=O)N[C@@H]5CNC[C@H]5O)c4n3)cc(C(F)(F)F)c2C1=O [Example 360] |
| 0.1 to 1 | < 0.1 | – | – | C[C@@H](C1CC1)N1Cc2cc(-c3ccn4nc(N)c(C(=O)N[C@@H](CO)C(F)(F)F)c4n3)cc(C(F)(F)F)c2C1=O [Example 361] |
| 0.1 to 1 | < 0.1 | – | – | C[C@@H](C1CC1)N1Cc2cc(-c3ccn4nc(N)c(C(=O)N[C@@H]5CCC[C@H](N(C)C)C5)c4n3)cc(C(F)(F)F)c2C1=O [Example 362] |
| > 1 | < 0.1 | – | – | C[C@@H](C1CC1)N1Cc2cc(-c3ccn4nc(N)c(C(=O)Nc5ccccc5)c4n3)cc(C(F)(F)F)c2C1=O [Example 363] |
| 0.1 to 1 | < 0.1 | – | – | COCC(NC(=O)c1c(N)nn2ccc(-c3cc4c(c(C(F)(F)F)c3)C(=O)N([C@@H](C)C3CC3)C4)nc12)C(C)C (some centres unmarked) [Example 364] |
| 0.1 to 1 | < 0.1 | – | – | C[C@@H](C1CC1)N1Cc2cc(-c3ccn4nc(N)c(C(=O)NC5CC5c5ccccc5)c4n3)cc(C(F)(F)F)c2C1=O (some centres unmarked) [Example 365] |
| > 1 | < 0.1 | – | – | C[C@@H](C1CC1)N1Cc2cc(-c3ccn4nc(N)c(C(=O)N[C@H]5CCC[C@@H](N)C5)c4n3)cc(C(F)(F)F)c2C1=O [Example 366] |
| > 1 | < 0.1 | – | – | C[C@@H](C1CC1)N1Cc2cc(-c3ccn4nc(N)c(C(=O)N[C@H]5CCC[C@H](N)C5)c4n3)cc(C(F)(F)F)c2C1=O [Example 367] |
| 0.1 to 1 | < 0.1 | – | – | C[C@@H](C1CC1)N1Cc2cc(-c3ccn4nc(N)c(C(=O)N[C@H]5CC[C@H](N)CC5)c4n3)cc(C(F)(F)F)c2C1=O [Example 368] |
| – | – | 0.1 to 1 | < 0.1 | CC(CO)NC(=O)c1c(N)nn2ccc(-c3cc(F)c4c(c3)CN([C@@H](C)C3CC3)C4=O)nc12 (some centres unmarked) [Example 369] |
| – | – | 0.1 to 1 | < 0.1 | C[C@@H](C1CC1)N1Cc2cc(-c3ccn4nc(N)c(C(=O)NC5CC5)c4n3)cc(F)c2C1=O [Example 370] |
| – | – | 0.1 to 1 | < 0.1 | C[C@@H](C1CC1)N1Cc2cc(-c3ccn4nc(N)c(C(=O)Nc5ccc(=O)[nH]c5)c4n3)cc(NS(C)(=O)=O)c2C1=O [Example 371] |
| – | – | 0.1 to 1 | < 0.1 | C[C@@H](C1CC1)N1Cc2cc(-c3ccn4nc(N)c(C(=O)N[C@H]5CCNC5=O)c4n3)cc(NS(C)(=O)=O)c2C1=O [Example 372] |
| – | – | 0.1 to 1 | < 0.1 | C[C@@H](C1CC1)N1Cc2cc(-c3ccn4nc(N)c(C(=O)NC(C)(C)C(N)=O)c4n3)cc(NS(C)(=O)=O)c2C1=O [Example 373] |
| – | – | 0.1 to 1 | < 0.1 | C[C@@H](C1CC1)N1Cc2cc(-c3ccn4nc(N)c(C(=O)N[C@H]5CNC(=O)C5)c4n3)cc(NS(C)(=O)=O)c2C1=O [Example 374] |
| – | – | 0.1 to 1 | < 0.1 | COC(=O)c1cc(NC(=O)c2c(N)nn3ccc(-c4cc5c(c(NS(C)(=O)=O)c4)C(=O)N([C@@H](C)C4CC4)C5)nc23)ccn1 [Example 375] |

| IC50 (PI3Kγ; [1]) [µM] | IC50 (PI3Kγ (p120γ); Table 3, p120γ) [µM] | IC50 (PI3Kγ; [2]) [µM] | IC50 (PI3Kγ (p120γ)) [µM] | Structure (SMILES) |
| --- | --- | --- | --- | --- |
| – | – | 0.1 to 1 | < 0.1 | C[C@@H](C1CC1)N1Cc2cc(-c3ccn4nc(N)c(C(=O)N[C@@H](CO)C(F)(F)F)c4n3)cc(NS(C)(=O)=O)c2C1=O [Example 376] |
| – | – | < 0.1 | < 0.1 | C[C@@H](C1CC1)N1Cc2cc(-c3ccn4nc(N)c(C(=O)NC5C6CC7CC5CC(O)(C7)C6)c4n3)cc(NS(C)(=O)=O)c2C1=O (some centres unmarked) [Example 377] |
| – | – | 0.1 to 1 | < 0.1 | C[C@@H](C1CC1)N1Cc2cc(-c3ccn4nc(N)c(C(=O)Nc5cccc(F)c5)c4n3)cc(NS(C)(=O)=O)c2C1=O [Example 378] |
| – | – | > 1 | < 0.1 | C[C@@H](C1CC1)N1Cc2cc(-c3ccn4nc(N)c(C(=O)Nc5ccnc(CO)c5)c4n3)cc(NS(C)(=O)=O)c2C1=O [Example 379] |
| – | – | 0.1 to 1 | < 0.1 | COc1ccc(NC(=O)c2c(N)nn3ccc(-c4cc5c(c(NS(C)(=O)=O)c4)C(=O)N([C@@H](C)C4CC4)C5)nc23)cc1 [Example 380] |
| – | – | 0.1 to 1 | < 0.1 | C[C@@H](C1CC1)N1Cc2cc(-c3ccn4nc(N)c(C(=O)NCC5(O)CC5)c4n3)cc(NS(C)(=O)=O)c2C1=O [Example 381] |
| – | – | 0.1 to 1 | < 0.1 | C[C@H](NC(=O)c1c(N)nn2ccc(-c3cc4c(c(NS(C)(=O)=O)c3)C(=O)N([C@@H](C)C3CC3)C4)nc12)C(N)=O [Example 382] |
| – | – | 0.1 to 1 | < 0.1 | C[C@@H](C1CC1)N1Cc2cc(-c3ccn4nc(N)c(C(=O)NCCO)c4n3)cc(NS(C)(=O)=O)c2C1=O [Example 383] |
| – | – | 0.1 to 1 | < 0.1 | C[C@@H](C1CC1)N1Cc2cc(-c3ccn4nc(N)c(C(=O)N[C@@H]5CCCC[C@H]5O)c4n3)cc(NS(C)(=O)=O)c2C1=O [Example 384] |
| – | – | 0.1 to 1 | < 0.1 | COC[C@@H](C)NC(=O)c1c(N)nn2ccc(-c3cc4c(c(NS(C)(=O)=O)c3)C(=O)N([C@@H](C)C3CC3)C4)nc12 [Example 385] |
| – | – | 0.1 to 1 | < 0.1 | C[C@@H](C1CC1)N1Cc2cc(-c3ccn4nc(N)c(C(=O)Nc5cccc(C#N)c5)c4n3)cc(NS(C)(=O)=O)c2C1=O [Example 386] |
| – | – | 0.1 to 1 | < 0.1 | COc1cncc(NC(=O)c2c(N)nn3ccc(-c4cc5c(c(NS(C)(=O)=O)c4)C(=O)N([C@@H](C)C4CC4)C5)nc23)c1 [Example 387] |
| – | – | 0.1 to 1 | < 0.1 | C[C@@H](C1CC1)N1Cc2cc(-c3ccn4nc(N)c(C(=O)Nc5ccc(F)cc5)c4n3)cc(NS(C)(=O)=O)c2C1=O [Example 388] |
| – | – | 0.1 to 1 | < 0.1 | C[C@@H](C1CC1)N1Cc2cc(-c3ccn4nc(N)c(C(=O)Nc5ccc(CC(F)(F)F)nc5)c4n3)cc(NS(C)(=O)=O)c2C1=O [Example 389] |
| – | – | 0.1 to 1 | < 0.1 | COCC(C)(C)NC(=O)c1c(N)nn2ccc(-c3cc4c(c(NS(C)(=O)=O)c3)C(=O)N([C@@H](C)C3CC3)C4)nc12 [Example 390] |
| – | – | 0.1 to 1 | < 0.1 | Cc1ccccc1NC(=O)c1c(N)nn2ccc(-c3cc4c(c(NS(C)(=O)=O)c3)C(=O)N([C@@H](C)C3CC3)C4)nc12 [Example 391] |
| – | – | > 1 | < 0.1 | C[C@@H](C1CC1)N1Cc2cc(-c3ccn4nc(N)c(C(=O)Nc5ccc(Cl)cc5)c4n3)cc(NS(C)(=O)=O)c2C1=O [Example 392] |
| – | – | 0.1 to 1 | < 0.1 | C[C@@H](C1CC1)N1Cc2cc(-c3ccn4nc(N)c(C(=O)Nc5ccc(C#N)cc5)c4n3)cc(NS(C)(=O)=O)c2C1=O [Example 393] |
| – | – | 0.1 to 1 | < 0.1 | C[C@@H](C1CC1)N1Cc2cc(-c3ccn4nc(N)c(C(=O)NC5CC5(C)C)c4n3)cc(NS(C)(=O)=O)c2C1=O (some centres unmarked) [Example 394] |
| – | – | 0.1 to 1 | < 0.1 | COC(=O)c1ccc(NC(=O)c2c(N)nn3ccc(-c4cc5c(c(NS(C)(=O)=O)c4)C(=O)N([C@@H](C)C4CC4)C5)nc23)cn1 [Example 395] |
| – | – | 0.1 to 1 | < 0.1 | C[C@@H](C1CC1)N1Cc2cc(-c3ccn4nc(N)c(C(=O)Nc5ccccn5)c4n3)cc(NS(C)(=O)=O)c2C1=O [Example 396] |
| – | – | 0.1 to 1 | < 0.1 | C[C@@H](C1CC1)N1Cc2cc(-c3ccn4nc(N)c(C(=O)Nc5ccccc5F)c4n3)cc(NS(C)(=O)=O)c2C1=O [Example 397] |
| – | – | > 1 | < 0.1 | COc1ccccc1NC(=O)c1c(N)nn2ccc(-c3cc4c(c(NS(C)(=O)=O)c3)C(=O)N([C@@H](C)C3CC3)C4)nc12 [Example 398] |
| – | – | 0.1 to 1 | < 0.1 | CC(C)[C@H](CO)NC(=O)c1c(N)nn2ccc(-c3cc4c(c(NS(C)(=O)=O)c3)C(=O)N([C@@H](C)C(F)(F)F)C4)nc12 [Example 399] |
